Experimental data as given in US8613927B2, “High affinity human antibodies to human nerve growth factor” (Regeneron Pharmaceuticals, Inc., priority 2007, dated 2013).

How the values were obtained:
C57BL/6 mice = experiment: Post-operative incision pain model, mechanical allodynia in von Frey test; assay type: in vivo, mouse; conditions: Table 17
Experimental: Thermal hyperalgesia was studied in the Hargreaves' test and mechanical allodynia was tested in the von Frey test. In this latter test, mice were tested after being acclimated for 2-3 hours for 4 days in an apparatus with a wire mesh floor. The test was performed by applying, in ascending order, a series of von Frey hairs through the wire mesh onto the plantar surface of the hind paw with the incision. A response was considered positive if the paw was raised from the platform in response to application of the filament. Starting from the thinnest hair, each von Frey filament was applied up to five times until a response was observed.

C57BL/6 male mice = experiment: Seltzer model of neuropathic pain, Hargreaves' test; assay type: in vivo, mouse
Text: Neuropathic pain. The mouse Seltzer model of neuropathic pain (Malmberg et al. (1998) Pain 76:215-222) was used with C57BL/6 male mice, in which a partial nerve injury was produced by tying a tight ligature with a 7-0 silk suture around approximately ⅓ to ½ the diameter of the sciatic nerve of one single thigh per mouse. Post-surgery, the mice were allowed to recover for at least two days and then they were studied for several weeks post-surgery for thermal hyperalgesia in the Hargreaves' test. Controls were sham-operated mice in which the sciatic nerve was exposed and elevated but not tied. Following surgery, the mice were tested at day […] and at day 7 post-surgery to confirm that the thermal hyperalgesia had developed.
Following the Seltzer surgery, mice were tested at days 5 and 7 post-surgery to confirm that the thermal hyperalgesia had developed.

IgG1 Control: negative binding control, IgG1 control (AVASTIN®; Genentech, CA)
Paw Withdrawal Threshold (C57BL/6 mice; 25 mg/kg i.p. on day 1 post-surgery, Baseline): 1.314 ± 0.137 g | Paw Withdrawal Threshold (C57BL/6 mice; 25 mg/kg i.p., 5 hr after treatment): 0.011 ± 0.002 g | Paw Withdrawal Threshold (C57BL/6 mice; 25 mg/kg i.p., 22 hr after treatment): 0.029 ± 0.004 g | Paw Withdrawal Threshold (C57BL/6 mice; 25 mg/kg i.p., 45 hr after treatment): 0.190 ± 0.135 g | Paw Withdrawal Threshold (C57BL/6 mice; 25 mg/kg i.p., 70 hr after treatment): 0.194 ± 0.034 g | Paw Withdrawal Threshold (C57BL/6 mice; 25 mg/kg i.p., Day 1 (post-surgery, before injection)): 0.011 ± 0.002 g | pain relief (C57BL/6 male mice; 50 mg/kg s.c. or i.p. at day 7 post-surgery, p<0.001-0.05): no effect | mean percent change from Hargreaves baseline (C57BL/6 male mice; Table 23, Seltzer, 100 mg/kg s.c. at day 7, day 0 after surgery): 0.0 ± 0.0% | mean percent change from Hargreaves baseline (C57BL/6 male mice; Table 23, Seltzer, 100 mg/kg s.c. at day 7, day 4): −46.9 ± 6.5% | mean percent change from Hargreaves baseline (C57BL/6 male mice; Table 23, Seltzer, 100 mg/kg s.c. at day 7, day 7): −55.3 ± 6.4% | mean percent change from Hargreaves baseline (C57BL/6 male mice; Table 23, Seltzer, 100 mg/kg s.c. at day 7, day 8): −55.6 ± 4.3% | mean percent change from Hargreaves baseline (C57BL/6 male mice; Table 23, Seltzer, 100 mg/kg s.c. at day 7, day 11): −57.3 ± 5.1% | mean percent change from Hargreaves baseline (C57BL/6 male mice; Table 23, Seltzer, 100 mg/kg s.c. at day 7, day 13): −59.7 ± 6.5% | mean percent change from Hargreaves baseline (C57BL/6 male mice; Table 23, Seltzer, 100 mg/kg s.c. at day 7, day 16): −51.2 ± 4.0% | mean percent change from Hargreaves baseline (C57BL/6 male mice; Table 23, Seltzer, 100 mg/kg s.c. at day 7, day 18): −57.7 ± 4.6% | mean percent change from Hargreaves baseline (C57BL/6 male mice; Table 23, Seltzer, 100 mg/kg s.c. at day 7, day 20): −53.2 ± 4.9% | mean percent change from Hargreaves baseline (C57BL/6 male mice; Table 23, Seltzer, 100 mg/kg s.c. at day 7, day 24): −54.9 ± 4.1% | mean percent change from Hargreaves baseline (C57BL/6 male mice; Table 23, Seltzer, 100 mg/kg s.c. at day 7, day 28): −51.81 ± 4.1% | mean percent change from Hargreaves baseline (C57BL/6 male mice; Table 23, Seltzer, 100 mg/kg s.c. at day 7, day 31): −49.7 ± 2.5% | mean percent change from Hargreaves baseline (C57BL/6 male mice; Table 23, Sham-operated, 100 mg/kg s.c. at day 7, day 0 after surgery): 0.0 ± 0.0% | mean percent change from Hargreaves baseline (C57BL/6 male mice; Table 23, Sham, 100 mg/kg s.c. at day 7, day 4): −7.2 ± 3.7% | mean percent change from Hargreaves baseline (C57BL/6 male mice; Table 23, Sham, 100 mg/kg s.c. at day 7, day 7): 8.7 ± 13.2% | mean percent change from Hargreaves baseline (C57BL/6 male mice; Table 23, Sham, 100 mg/kg s.c. at day 7, day 8): −9.4 ± 4.1% | mean percent change from Hargreaves baseline (C57BL/6 male mice; Table 23, Sham, 100 mg/kg s.c. at day 7, day 11): 14.7 ± 11.4% | mean percent change from Hargreaves baseline (C57BL/6 male mice; Table 23, Sham, 100 mg/kg s.c. at day 7, day 13): −6.9 ± 3.3% | mean percent change from Hargreaves baseline (C57BL/6 male mice; Table 23, Sham, 100 mg/kg s.c. at day 7, day 16): 2.3 ± 3.0% | mean percent change from Hargreaves baseline (C57BL/6 male mice; Table 23, Sham, 100 mg/kg s.c. at day 7, day 18): 0.2 ± 2.8% | mean percent change from Hargreaves baseline (C57BL/6 male mice; Table 23, Sham, 100 mg/kg s.c. at day 7, day 20): 3.6 ± 2.4% | mean percent change from Hargreaves baseline (C57BL/6 male mice; Table 23, Sham, 100 mg/kg s.c. at day 7, day 24): 1.5 ± 2.9% | mean percent change from Hargreaves baseline (C57BL/6 male mice; Table 23, Sham, 100 mg/kg s.c. at day 7, day 28): 0.7 ± 2.5% | mean percent change from Hargreaves baseline (C57BL/6 male mice; Table 23, Sham, 100 mg/kg s.c. at day 7, day 31): 1.1 ± 2.3% | mean percent change from Hargreaves baseline (C57BL/6 male mice; Table 24, 100 mg/kg s.c. injected Day 7 post-surgery, Baseline): 0.0 ± 0.0% | mean percent change from Hargreaves baseline (C57BL/6 male mice; Table 24, 100 mg/kg s.c. injected Day 14 post-surgery, Baseline): 0.0 ± 0.0% | mean percent change from Hargreaves baseline (C57BL/6 male mice; Table 24, 100 mg/kg s.c. injected Day 21 post-surgery, Baseline): 0.0 ± 0.0% | mean percent change from Hargreaves baseline (C57BL/6 male mice; Table 24, injected Day 7, Day 5 after surgery): −53.5 ± 5.9% | mean percent change from Hargreaves baseline (C57BL/6 male mice; Table 24, injected Day 7, Day 8): −56.7 ± 3.8% | mean percent change from Hargreaves baseline (C57BL/6 male mice; Table 24, injected Day 7, Day 10): −64.3 ± 2.6% | mean percent change from Hargreaves baseline (C57BL/6 male mice; Table 24, injected Day 7, Day 14): −66.9 ± 5.1% | mean percent change from Hargreaves baseline (C57BL/6 male mice; Table 24, injected Day 7, Day 15): −60.6 ± 4.0% | mean percent change from Hargreaves baseline (C57BL/6 male mice; Table 24, injected Day 7, Day 17): −58.9 ± 3.5% | mean percent change from Hargreaves baseline (C57BL/6 male mice; Table 24, injected Day 7, Day 21): −54.1 ± 9.6% | mean percent change from Hargreaves baseline (C57BL/6 male mice; Table 24, injected Day 7, Day 22): −56.3 ± 4.9% | mean percent change from Hargreaves baseline (C57BL/6 male mice; Table 24, injected Day 7, Day 24): −55.6 ± 5.1% | mean percent change from Hargreaves baseline (C57BL/6 male mice; Table 24, injected Day 7, Day 28): −54.1 ± 3.5% | mean percent change from Hargreaves baseline (C57BL/6 male mice; Table 24, injected Day 7, Day 32): −41.9 ± 8.3% | mean percent change from Hargreaves baseline (C57BL/6 male mice; Table 24, injected Day 7, Day 35): −43.9 ± 6.8% | mean percent change from Hargreaves baseline (C57BL/6 male mice; Table 24, injected Day 7, Day 42): −35.0 ± 6.6%
